Assay results reported in patent US12109218B2, “Compositions of grapiprant and methods for using the same” (ARATANA THERAPEUTICS, INC., priority 2014, dated 2024).

Test system: meniscal release model of osteoarthritis
Test: Meniscal release model of osteoarthritis in dogs (Example 8)
Format: in vivo
Conditions: 5 mg/kg daily
Experimental: Twenty intact adult female hounds underwent surgical meniscal release of the right stifle and were maintained for at least 8 weeks to allow osteoarthritis to develop. […] Animals were randomized into three groups: negative control (n=6), positive control (n=7) treated with 5 mg/kg firocoxib daily, and grapiprant (n=7) dosed once daily at 30 mg/kg. Dosing was based on baseline bodyweight.
Baseline physical exams, bodyweights, hematology, serum chemistry and urinalysis were obtained on study Day −1 and repeated on Day 13. Orthopedic assessments were conducted on Day −1, Day 2, Day 6, and Day 13, including a kinetics assessment using the GAITRite system to determine left hindlimb: right hindlimb ratios for peak pressure, stride length, step length, and stance time, a 5-point scale lameness evaluation, VAS assessments of right hindlimb function, right stifle pain and effusion, and comfortable range of motion measurements of both stifles using a goniometer.

CC1(C)OC(=O)C(OCC2CC2)=C1c1ccc(S(C)(=O)=O)cc1 [firocoxib, reference compound]
peak pressure ratios, lameness and function scores compared to baseline: improved statistically significant mean peak pressure ratios on Day 13 and in mean lameness and mean function scores on Day 6 and 13 compared to baseline
